{"source": "ChEMBL document CHEMBL4622905", "about": "“Synthesis and antifungal activity of new hybrids pyrimido[4,5-d]pyridazinone-N-acylhydrazones” (Bioorg Med Chem Lett, 2020)", "key": {"[1]": {"test_system": "Paracoccidioides brasiliensis", "assay": "Antifungal activity against Paracoccidioides brasiliensis Pb18", "format": "functional"}, "[2]": {"test_system": "Paracoccidioides brasiliensis", "assay": "Fungicidal activity against Paracoccidioides brasiliensis Pb18", "format": "functional"}, "[3]": {"test_system": "Paracoccidioides brasiliensis", "assay": "Antifungal activity against Paracoccidioides brasiliensis Pb18 in presence of amphotericin B", "format": "functional"}, "[4]": {"test_system": "Paracoccidioides brasiliensis", "assay": "Antifungal activity against Paracoccidioides brasiliensis Pb18 in presence of 0.06 ug/ml amphotericin B", "format": "functional"}, "[5]": {"test_system": "Paracoccidioides brasiliensis", "assay": "Synergistic antifungal activity against Paracoccidioides brasiliensis Pb18 assessed as fractional inhibitory concentration in presence of amphotericin B", "format": "functional"}, "[6]": {"test_system": "HeLa", "assay": "Cytotoxicity against human HeLa cells at 512 ug/ml", "format": "cell-based"}, "[7]": {"test_system": "Vero", "assay": "Cytotoxicity against monkey Vero cells at 512 ug/ml", "format": "cell-based", "conditions": "chlorocebus sabaeus"}, "[8]": {"assay": "Selectivity index, ratio for cytotoxicity for human HeLa cells to MIC for Paracoccidioides brasiliensis Pb18", "format": "toxicity, cell-based"}, "[9]": {"assay": "Selectivity index, ratio for cytotoxicity for monkey Vero cells to MIC for Paracoccidioides brasiliensis Pb18", "format": "toxicity, cell-based"}, "[10]": {"test_system": "Candida", "assay": "Antifungal activity against Candida", "format": "functional, organism-based"}, "[11]": {"test_system": "Paracoccidioides brasiliensis", "assay": "Antifungal activity against Paracoccidioides brasiliensis Pb18 in presence of 0.125 ug/ml amphotericin B", "format": "functional"}, "[12]": {"test_system": "Paracoccidioides brasiliensis", "assay": "Antifungal activity against Paracoccidioides brasiliensis Pb18 in presence of 0.25 ug/ml amphotericin B", "format": "functional"}, "[13]": {"test_system": "Nakaseomyces glabratus", "assay": "Antifungal activity against Candida glabrata", "format": "functional"}, "[14]": {"test_system": "Paracoccidioides brasiliensis", "assay": "Antifungal activity against Paracoccidioides brasiliensis Pb18 in presence of 0.01 ug/ml amphotericin B", "format": "functional"}, "[15]": {"test_system": "Candida albicans", "assay": "Antifungal activity against Candida albicans", "format": "functional"}, "[16]": {"test_system": "Candida tropicalis", "assay": "Antifungal activity against Candida tropicalis", "format": "functional"}}, "note": "The source made the active and inactive calls. No cut-off for these calls is given here."}
{"smiles": "O=C(N/N=C/c1ccc(O)cc1)c1n[nH]c(=O)c2nc(-c3ccccc3)ncc12", "values": [{"measurement": "MIC", "setting": "[1]", "result": 32, "unit": "µg/mL"}, {"measurement": "MFC", "setting": "[2]", "result": 32, "unit": "µg/mL"}, {"measurement": "MIC", "setting": "[3]", "result": 16, "unit": "µg/mL"}, {"measurement": "MIC", "setting": "[4]", "result": 0.5, "unit": "µg/mL"}, {"measurement": "FIC", "setting": "[5]", "result": 0.37}, {"measurement": "Activity", "setting": "[6]", "result": "> 80", "unit": "%"}, {"measurement": "Activity", "setting": "[7]", "result": "> 80", "unit": "%"}, {"measurement": "selectivity ratio", "setting": "[8]", "result": 5}, {"measurement": "selectivity ratio", "setting": "[9]", "result": 5}, {"measurement": "Activity", "setting": "[10]", "result": "inactive"}]}
{"smiles": "C[C@@H]1[C@H](O)[C@@H](C)/C=C/C=C/C=C/C=C/C=C/C=C/C=C/[C@H](O[C@@H]2O[C@H](C)[C@@H](O)[C@H](N)[C@@H]2O)C[C@@H]2O[C@](O)(C[C@@H](O)C[C@@H](O)[C@H](O)CC[C@@H](O)C[C@@H](O)CC(=O)O[C@H]1C)C[C@H](O)[C@H]2C(=O)O", "note": "[AMPHOTERICIN B]", "values": [{"measurement": "MIC", "setting": "[1]", "result": 1, "unit": "µg/mL"}, {"measurement": "MFC", "setting": "[2]", "result": 1, "unit": "µg/mL"}]}
{"smiles": "COc1cc(/C=N/NC(=O)c2n[nH]c(=O)c3nc(-c4ccccc4)ncc23)cc(OC)c1O", "values": [{"measurement": "MIC", "setting": "[1]", "result": 64, "unit": "µg/mL"}, {"measurement": "MFC", "setting": "[2]", "result": 64, "unit": "µg/mL"}, {"measurement": "MIC", "setting": "[3]", "result": 16, "unit": "µg/mL"}, {"measurement": "MIC", "setting": "[11]", "result": 0.5, "unit": "µg/mL"}, {"measurement": "FIC", "setting": "[5]", "result": 0.75}, {"measurement": "Activity", "setting": "[6]", "result": "> 80", "unit": "%"}, {"measurement": "Activity", "setting": "[7]", "result": "> 80", "unit": "%"}, {"measurement": "selectivity ratio", "setting": "[8]", "result": 4}, {"measurement": "selectivity ratio", "setting": "[9]", "result": 4}, {"measurement": "Activity", "setting": "[10]", "result": "inactive"}]}
{"smiles": "O=C(N/N=C/c1ccc(-c2cccs2)s1)c1n[nH]c(=O)c2nc(-c3ccccc3)ncc12", "values": [{"measurement": "MIC", "setting": "[1]", "result": "> 256", "unit": "µg/mL"}]}
{"smiles": "COc1cc(/C=N/NC(=O)c2n[nH]c(=O)c3nc(-c4ccccc4)ncc23)ccc1O", "values": [{"measurement": "MIC", "setting": "[1]", "result": "> 256", "unit": "µg/mL"}]}
{"smiles": "O=C(N/N=C/c1cccs1)c1n[nH]c(=O)c2nc(-c3ccccc3)ncc12", "values": [{"measurement": "MIC", "setting": "[1]", "result": "> 256", "unit": "µg/mL"}]}
{"smiles": "COc1ccc(/C=N/NC(=O)c2n[nH]c(=O)c3nc(-c4ccccc4)ncc23)cc1OC", "values": [{"measurement": "MIC", "setting": "[1]", "result": 64, "unit": "µg/mL"}, {"measurement": "MFC", "setting": "[2]", "result": 64, "unit": "µg/mL"}, {"measurement": "MIC", "setting": "[3]", "result": 16, "unit": "µg/mL"}, {"measurement": "MIC", "setting": "[12]", "result": 0.5, "unit": "µg/mL"}, {"measurement": "FIC", "setting": "[5]", "result": 0.625}, {"measurement": "Activity", "setting": "[6]", "result": "> 80", "unit": "%"}, {"measurement": "Activity", "setting": "[7]", "result": "> 80", "unit": "%"}, {"measurement": "selectivity ratio", "setting": "[8]", "result": 4}, {"measurement": "selectivity ratio", "setting": "[9]", "result": 4}, {"measurement": "Activity", "setting": "[10]", "result": "inactive"}]}
{"smiles": "CN(C)c1ccc(/C=N/NC(=O)c2n[nH]c(=O)c3nc(-c4ccccc4)ncc23)cc1", "values": [{"measurement": "MIC", "setting": "[1]", "result": "> 256", "unit": "µg/mL"}]}
{"smiles": "CCC(C)n1ncn(-c2ccc(N3CCN(c4ccc(OCC5COC(Cn6cncn6)(c6ccc(Cl)cc6Cl)O5)cc4)CC3)cc2)c1=O", "note": "(stereo not drawn) [ITRACONAZOLE]", "values": [{"measurement": "MIC", "setting": "[1]", "result": 1, "unit": "µg/mL"}]}
{"smiles": "O=C(N/N=C/c1cc([N+](=O)[O-])ccc1O)c1n[nH]c(=O)c2nc(-c3ccccc3)ncc12", "values": [{"measurement": "MIC", "setting": "[1]", "result": 128, "unit": "µg/mL"}, {"measurement": "MFC", "setting": "[2]", "result": 128, "unit": "µg/mL"}, {"measurement": "MIC", "setting": "[3]", "result": 8, "unit": "µg/mL"}, {"measurement": "MIC", "setting": "[11]", "result": 0.25, "unit": "µg/mL"}, {"measurement": "FIC", "setting": "[5]", "result": 0.625}, {"measurement": "Activity", "setting": "[6]", "result": "> 80", "unit": "%"}, {"measurement": "Activity", "setting": "[7]", "result": "> 80", "unit": "%"}, {"measurement": "selectivity ratio", "setting": "[8]", "result": 3}, {"measurement": "selectivity ratio", "setting": "[9]", "result": 3}, {"measurement": "Activity", "setting": "[10]", "result": "inactive"}]}
{"smiles": "O=C(N/N=C/c1ccc(F)cc1)c1n[nH]c(=O)c2nc(-c3ccccc3)ncc12", "values": [{"measurement": "MIC", "setting": "[1]", "result": 32, "unit": "µg/mL"}, {"measurement": "MFC", "setting": "[2]", "result": 32, "unit": "µg/mL"}, {"measurement": "MIC", "setting": "[3]", "result": 8, "unit": "µg/mL"}, {"measurement": "MIC", "setting": "[12]", "result": 0.5, "unit": "µg/mL"}, {"measurement": "FIC", "setting": "[5]", "result": 0.625}, {"measurement": "Activity", "setting": "[6]", "result": "> 80", "unit": "%"}, {"measurement": "Activity", "setting": "[7]", "result": "> 80", "unit": "%"}, {"measurement": "selectivity ratio", "setting": "[8]", "result": 5}, {"measurement": "selectivity ratio", "setting": "[9]", "result": 5}, {"measurement": "Activity", "setting": "[10]", "result": "inactive"}]}
{"smiles": "O=C(N/N=C/c1cccc([N+](=O)[O-])c1)c1n[nH]c(=O)c2nc(-c3ccccc3)ncc12", "values": [{"measurement": "MIC", "setting": "[1]", "result": "> 256", "unit": "µg/mL"}]}
{"smiles": "NNC(=O)c1n[nH]c(=O)c2nc(-c3ccccc3)ncc12", "values": [{"measurement": "MIC", "setting": "[1]", "result": "> 256", "unit": "µg/mL"}]}
{"smiles": "O=C(N/N=C/c1ccccc1O)c1n[nH]c(=O)c2nc(-c3ccccc3)ncc12", "values": [{"measurement": "MIC", "setting": "[1]", "result": 128, "unit": "µg/mL"}, {"measurement": "MFC", "setting": "[2]", "result": 128, "unit": "µg/mL"}, {"measurement": "MIC", "setting": "[3]", "result": 8, "unit": "µg/mL"}, {"measurement": "MIC", "setting": "[11]", "result": 0.25, "unit": "µg/mL"}, {"measurement": "FIC", "setting": "[5]", "result": 0.625}, {"measurement": "Activity", "setting": "[6]", "result": "> 80", "unit": "%"}, {"measurement": "Activity", "setting": "[7]", "result": "> 80", "unit": "%"}, {"measurement": "selectivity ratio", "setting": "[8]", "result": 3}, {"measurement": "selectivity ratio", "setting": "[9]", "result": 3}, {"measurement": "Activity", "setting": "[10]", "result": "inactive"}]}
{"smiles": "O=C(N/N=C/c1ccccn1)c1n[nH]c(=O)c2nc(-c3ccccc3)ncc12", "values": [{"measurement": "MIC", "setting": "[1]", "result": "> 256", "unit": "µg/mL"}]}
{"smiles": "COc1ccc(/C=N/NC(=O)c2n[nH]c(=O)c3nc(-c4ccccc4)ncc23)cc1", "values": [{"measurement": "MIC", "setting": "[1]", "result": "> 256", "unit": "µg/mL"}]}
{"smiles": "O=C(N/N=C/c1cc(Cl)ccc1O)c1n[nH]c(=O)c2nc(-c3ccccc3)ncc12", "values": [{"measurement": "MIC", "setting": "[1]", "result": 64, "unit": "µg/mL"}, {"measurement": "MFC", "setting": "[2]", "result": 64, "unit": "µg/mL"}, {"measurement": "MIC", "setting": "[3]", "result": 4, "unit": "µg/mL"}, {"measurement": "MIC", "setting": "[4]", "result": 0.5, "unit": "µg/mL"}, {"measurement": "FIC", "setting": "[5]", "result": 0.245}, {"measurement": "Activity", "setting": "[6]", "result": "> 80", "unit": "%"}, {"measurement": "Activity", "setting": "[7]", "result": "> 80", "unit": "%"}, {"measurement": "selectivity ratio", "setting": "[8]", "result": 4}, {"measurement": "selectivity ratio", "setting": "[9]", "result": 4}, {"measurement": "MIC", "setting": "[13]", "result": 4, "unit": "µg/mL"}]}
{"smiles": "O=C(N/N=C/c1ccc([N+](=O)[O-])cc1)c1n[nH]c(=O)c2nc(-c3ccccc3)ncc12", "values": [{"measurement": "MIC", "setting": "[1]", "result": "> 256", "unit": "µg/mL"}]}
{"smiles": "O=C(N/N=C/c1ccccc1)c1n[nH]c(=O)c2nc(-c3ccccc3)ncc12", "values": [{"measurement": "MIC", "setting": "[1]", "result": 0.125, "unit": "µg/mL"}, {"measurement": "MFC", "setting": "[2]", "result": 0.5, "unit": "µg/mL"}, {"measurement": "MIC", "setting": "[3]", "result": 0.031, "unit": "µg/mL"}, {"measurement": "MIC", "setting": "[14]", "result": 1, "unit": "µg/mL"}, {"measurement": "FIC", "setting": "[5]", "result": 0.134}, {"measurement": "Activity", "setting": "[6]", "result": "> 80", "unit": "%"}, {"measurement": "Activity", "setting": "[7]", "result": "> 80", "unit": "%"}, {"measurement": "selectivity ratio", "setting": "[8]", "result": 13}, {"measurement": "selectivity ratio", "setting": "[9]", "result": 13}, {"measurement": "MIC", "setting": "[15]", "result": 4, "unit": "µg/mL"}, {"measurement": "MIC", "setting": "[16]", "result": 8, "unit": "µg/mL"}]}
